Assay results from publication PMC8936486 (PLoS Biology, 2022).

Legend:
SaFtsZf [1] = biological target: T1, SaFtsZf (Staphylococcus aureus, UniProt P0A029); assay: light scattering of polymer assembly; format: biochemical; details: 10 mM MgCl2, pH 6.5, 25 °C
T1 construct: gene ftsZ
T1 sequence (P0A029 1-390): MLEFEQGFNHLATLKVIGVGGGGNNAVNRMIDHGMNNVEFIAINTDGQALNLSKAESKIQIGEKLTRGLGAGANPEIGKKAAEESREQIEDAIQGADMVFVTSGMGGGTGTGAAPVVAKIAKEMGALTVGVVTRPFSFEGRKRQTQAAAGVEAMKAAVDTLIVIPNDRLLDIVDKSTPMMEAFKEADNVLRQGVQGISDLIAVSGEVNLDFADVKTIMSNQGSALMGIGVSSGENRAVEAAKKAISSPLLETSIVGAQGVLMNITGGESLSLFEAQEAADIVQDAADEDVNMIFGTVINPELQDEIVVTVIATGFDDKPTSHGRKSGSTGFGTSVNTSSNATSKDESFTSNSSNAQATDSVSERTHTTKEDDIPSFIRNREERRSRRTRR

MjFtsZ = biological target: T2, MjFtsZ (Methanocaldococcus jannaschii, UniProt Q57816); assay: light scattering of polymer assembly; format: biochemical; details: 5 mM BeF3- with GTP, 55 °C; stabilizes polymers, repolymerization after disassembly
T2 construct: gene ftsZ1; full-length, nucleotide-devoid (apo)

SaFtsZf [2] = biological target: T1, SaFtsZf; assay: electron microscopy of polymers; format: biochemical; details: MES assembly buffer, 25 °C
[3] = biological target: the molecule itself; assay: right angle light scattering; self-assembly of full-length FtsZ with 1 mM GTP and MgCl2 in MES assembly buffer; SaFtsZf 49 uM and EcFtsZ 25 uM at 25 C, apo-MjFtsZ 15 uM at 55 C; SaFtsZf polymers also seen by electron microscopy

Molecule: [F][Be-]([F])[F] [BeF3^−]
- light scattering of polymer assembly (SaFtsZf [1]; 1-5 mM BeF3- with 1 mM GTP, stabilizes polymers): Assembly of full-length SaFtsZ is stabilized by BeF3^−
- light scattering of polymer assembly (MjFtsZ): Repolymerization with BeF3^− after disassembly was observed for MjFtsZ

Molecule: Nc1nc2c(ncn2[C@@H]2O[C@H](COP(=O)(O)CP(=O)(O)OP(=O)(O)O)[C@@H](O)[C@H]2O)c(=O)[nH]1 [GMPCPP, guanosine-5′-[(α,β)-methyleno]triphosphate]
- electron microscopy of polymers (SaFtsZf [2]): Polymers formed with GMPCPP

Molecule: Nc1nc2c(ncn2[C@@H]2O[C@H](COP(=O)(O)OP(=O)(O)OP(=O)(O)O)[C@@H](O)[C@H]2O)c(=O)[nH]1 [GTP]
- light scattering of polymer assembly (SaFtsZf [1]; 1 mM GTP): The sample with GTP depolymerized upon nucleotide consumption (blue line)

B1: full-length FtsZ from E. coli (natural protein, Escherichia coli, UniProt P0A9A6 1-383, looked up)
chain: MFEPMELTNDAVIKVIGVGGGGGNAVEHMVRERIEGVEFFAVNTDAQALRKTAVGQTIQIGSGITKGLGAGANPEVGRNAADEDRDALRAALEGADMVFIAAGMGGGTGTGAAPVVAEVAKDLGILTVAVVTKPFNFEGKKRMAFAEQGITELSKHVDSLITIPNDKLLKVLGRGISLLDAFGAANDVLKGAVQGIAELITRPGLMNVDFADVRTVMSEMGYAMMGSGVASGEDRAEEAAEMAISSPLLEDIDLSGARGVLVNITAGFDLRLDEFETVGNTIRAFASDNATVVIGTSLDPDMNDELRVTVVATGIGMDKRPEITLVTNKQVQQPVMDRYQQHGMAPLTQEQKPVAKVVNDNAPQTAKEPDYLDIPAFLRKQAD
notes: full-length FtsZ from Escherichia coli, wild-type protein; also called EcFtsZ; Escherichia coli FtsZ; source: purified as described [54]
- binding result [3]: binds

B2: nucleotide-devoid, full-length FtsZ from M. jannaschii (natural protein, Methanocaldococcus jannaschii, UniProt Q57816 1-364, looked up)
chain: MKFLKNVLEEGSKLEEFNELELSPEDKELLEYLQQTKAKITVVGCGGAGNNTITRLKMEGIEGAKTVAINTDAQQLIRTKADKKILIGKKLTRGLGAGGNPKIGEEAAKESAEEIKAAIQDSDMVFITCGLGGGTGTGSAPVVAEISKKIGALTVAVVTLPFVMEGKVRMKNAMEGLERLKQHTDTLVVIPNEKLFEIVPNMPLKLAFKVADEVLINAVKGLVELITKDGLINVDFADVKAVMNNGGLAMIGIGESDSEKRAKEAVSMALNSPLLDVDIDGATGALIHVMGPEDLTLEEAREVVATVSSRLDPNATIIWGATIDENLENTVRVLLVITGVQSRIEFTDTGLKRKKLELTGIPKI
notes: full-length FtsZ from Methanocaldococcus jannaschii, nucleotide-devoid; also called apo-MjFtsZ; MjFtsZ; source: prepared as reported [55]
- binding result [3]: binds

B3: full-length FtsZ from S. aureus (natural protein, Staphylococcus aureus Mu50/ATCC 700699, UniProt P0A029 1-390, looked up)
chain: MLEFEQGFNHLATLKVIGVGGGGNNAVNRMIDHGMNNVEFIAINTDGQALNLSKAESKIQIGEKLTRGLGAGANPEIGKKAAEESREQIEDAIQGADMVFVTSGMGGGTGTGAAPVVAKIAKEMGALTVGVVTRPFSFEGRKRQTQAAAGVEAMKAAVDTLIVIPNDRLLDIVDKSTPMMEAFKEADNVLRQGVQGISDLIAVSGEVNLDFADVKTIMSNQGSALMGIGVSSGENRAVEAAKKAISSPLLETSIVGAQGVLMNITGGESLSLFEAQEAADIVQDAADEDVNMIFGTVINPELQDEIVVTVIATGFDDKPTSHGRKSGSTGFGTSVNTSSNATSKDESFTSNSSNAQATDSVSERTHTTKEDDIPSFIRNREERRSRRTRR
notes: full-length FtsZ from methicillin-resistant S. aureus Mu50/ATCC 700699; also called SaFtsZf; full-length SaFtsZ
- binding result [3]: binds
